In test [1] the target is IL-2-Inducible T-Cell Kinase (ITK) (Homo sapiens (Human), UniProt Q08881). Kind of test: ITK enzyme assay (IL-2-inducible T-cell kinase activity). It is filed as biochemical. Conditions: geometric mean of count n. A digest of the protocol: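 Full-length N-Flag/C-His human ITK, pre-incubated 30 min at RT with compound. Reaction in HEPES pH 7.5 buffer with MgCl2, glutathione, gelatin and Brij-35, started with BTK peptide substrate, 60 min at RT. EDTA stop, PT66/APC TR-FRET detection overnight; IC50 fitted by four-parameter logistic.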

The subject of test [2] is activated CD4+ human T-cells (IL-2). Kind of test: IL-2 inhibition in supernatants from activated CD4+ human T-cells (cisbio HTRF). Type of test: cell-based. Particulars: T-cell; CD3/CD28-activated CD4+ human T cells, ImmunoCult stimulation 20 to 24 hrs; geometric mean of count n. The essentials:
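Primary human CD4+ T cells activated with CD3/CD28 for 3 days and expanded to 7-9 days total, plated at 30,000 cells/well. Cells preincubated 15 min with compound, then stimulated with ImmunoCult (1:50 final) for 20-24 h at 37° C. Supernatant IL-2 measured by HTRF (665/615 nm); IC50 from four-parameter logistic fit.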
In general terms: In TR-FRET formats the signal depends on donor and acceptor labels being close together.

Each structure is given as a SMILES string.

Among the data in patent publication US20240124439A1, “Pyrido[2,3-D]Imidazole Derivatives and Their Use As Inhibitors of ITK for the Treatment of Skin Disease” (Pfizer Inc., priority 2020, published 2024) are IC50 values, retold here.

As a reminder, the IC50 is the concentration at which inhibition is half-maximal.

Sequence of IL-2-Inducible T-Cell Kinase (ITK) (Q08881 whole entry): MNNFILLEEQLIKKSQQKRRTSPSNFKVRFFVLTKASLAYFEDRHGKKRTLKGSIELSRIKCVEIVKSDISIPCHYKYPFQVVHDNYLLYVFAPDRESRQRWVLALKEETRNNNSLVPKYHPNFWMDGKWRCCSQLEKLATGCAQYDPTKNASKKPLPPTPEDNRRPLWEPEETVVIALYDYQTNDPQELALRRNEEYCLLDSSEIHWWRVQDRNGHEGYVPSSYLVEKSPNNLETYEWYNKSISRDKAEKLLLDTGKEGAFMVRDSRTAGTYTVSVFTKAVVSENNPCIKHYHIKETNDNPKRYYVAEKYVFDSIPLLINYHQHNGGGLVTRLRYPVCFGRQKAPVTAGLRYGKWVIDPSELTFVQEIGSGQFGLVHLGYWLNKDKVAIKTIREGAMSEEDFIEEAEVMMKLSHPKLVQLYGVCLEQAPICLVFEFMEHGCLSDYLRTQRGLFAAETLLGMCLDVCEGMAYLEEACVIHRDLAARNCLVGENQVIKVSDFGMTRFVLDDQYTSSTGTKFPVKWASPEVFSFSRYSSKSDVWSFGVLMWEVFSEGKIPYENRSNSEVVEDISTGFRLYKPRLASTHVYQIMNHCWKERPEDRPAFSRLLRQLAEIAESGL

`CC(C)CCC(=O)N(C)c1cnc2nc(-c3n[nH]c4c3C[C@@H]3C[C@]3(C)C4)[nH]c2c1` [Example 74, N,4-Dimethyl-N-(2-((4aS,5aR)-5a-methyl-1,4,4a,5,5a,6-hexahydrocyclopropa[f]indazol-3-yl)-1H-imidazo[4,5-b]pyridin-6-yl)pentanamide]: the IC50 amounted to 50 nM in test [1] and 311 nM in test [2].

Regarding `CN(C(=O)C1CCCC1)c1cnc2[nH]c(-c3n[nH]c4c3CCC(C)(C)C4)nc2c1` [Example 113, N-(2-(6,6-Dimethyl-4,5,6,7-tetrahydro-1H-indazol-3-yl)-3H-imidazo[4,5-b]pyridin-6-yl)-N-methylcyclopentanecarboxamide], the results for the IC50 in test [1] and in test [2] were 350 nM and 1620 nM, respectively.

Turning to `C[C@H](C(=O)N(C)c1cnc2[nH]c(-c3n[nH]c4c3C[C@@H]3C[C@]3(C)C4)nc2c1)N1CCCOCC1` [Example 44, (R)-N-Methyl-N-(2-((4aS,5aR)-5a-methyl-1,4,4a,5,5a,6-hexahydrocyclopropa[f]indazol-3-yl)-3H-imidazo[4,5-b]pyridin-6-yl)-2-(1,4-oxazepan-4-yl)propenamide], the IC50 in test [1] was 101 nM; in test [2], 226 nM.

As for `C[C@@H](C(=O)N(C)c1cnc2[nH]c(-c3n[nH]c4c3C[C@@H]3C[C@]3(C)C4)nc2c1)N1CCCOCC1` [Example 43, (S)-N-Methyl-N-(2-((4aS,5aR)-5a-methyl-1,4,4a,5,5a,6-hexahydrocyclopropa[f]indazol-3-yl)-3H-imidazo[4,5-b]pyridin-6-yl)-2-(1,4-oxazepan-4-yl)propenamide], the IC50 is 134 nM in test [1] and 351 nM in test [2].

For `CN(C(=O)[C@H]1[C@@H]2COC[C@@H]21)c1cnc2nc(-c3n[nH]c4c3C[C@@H]3C[C@]3(C)C4)[nH]c2c1` [Example 69, (1R,5S,6r)-N-Methyl-N-(2-((4aS,5aR)-5a-methyl-1,4,4a,5,5a,6-hexahydrocyclopropa[f]indazol-3-yl)-1H-imidazo[4,5-b]pyridin-6-yl)-3-oxabicyclo[3.1.0]hexane-6-carboxamide], the IC50 in test [1] was 292 nM; in test [2], 1160 nM.

For the compound `COCCOc1nc2[nH]c(-c3n[nH]c4c3C[C@@H]3C[C@]3(C)C4)nc2cc1N(C)C(=O)CN1CCOCC1` [Example 38, N-(5-(2-Methoxyethoxy)-2-((4aS,5aR)-5a-methyl-1,4,4a,5,5a,6-hexahydrocyclopropa[f]indazol-3-yl)-3H-imidazo[4,5-b]pyridin-6-yl)-N-methyl-2-morpholinoacetamide], the IC50 amounted to 152 nM in test [1] and 464 nM in test [2].

As for `CN(C(=O)CC1CCCC1)c1cnc2nc(-c3n[nH]c4c3C[C@@H]3C[C@]3(C)C4)[nH]c2c1` [Example 45, 2-Cyclopentyl-N-methyl-N-(2-((4aS,5aR)-5a-methyl-1,4,4a,5,5a,6-hexahydrocyclopropa[f]indazol-3-yl)-1H-imidazo[4,5-b]pyridin-6-yl)acetamide], the half-maximal inhibitory concentration (IC50) came to 25 nM in test [1] and 117 nM in test [2].

In the case of `CN(C(=O)CC(C)(C)C)c1cnc2[nH]c(-c3n[nH]c4c3CCC(C)(C)C4)nc2c1` [Example 91, N-(2-(6,6-Dimethyl-4,5,6,7-tetrahydro-1H-indazol-3-yl)-3H-imidazo[4,5-b]pyridin-6-yl)-N,3,3-trimethylbutanamide], the figures for the IC50 in test [1] and in test [2] were 144 nM and 384 nM, respectively.

Consider `CC[C@@H](C(=O)N(C)c1cnc2[nH]c(-c3n[nH]c4c3C[C@@H]3C[C@]3(C)C4)nc2c1)N1CCOCC1` [Example 4, (S)-N-Methyl-N-(2-((4aS,5aR)-5a-methyl-1,4,4a,5,5a,6-hexahydrocyclopropa[f]indazol-3-yl)-3H-imidazo[4,5-b]pyridin-6-yl)-2-morpholinobutanamide], for which the IC50 in test [1] was found to be 38 nM; in test [2], 205 nM.

`CN(C(=O)C1(C)CCOCC1)c1cnc2nc(-c3n[nH]c4c3C[C@@H]3C[C@]3(C)C4)[nH]c2c1` [Example 70, N,4-Dimethyl-N-(2-((4aS,5aR)-5a-methyl-1,4,4a,5,5a,6-hexahydrocyclopropa[f]indazol-3-yl)-1H-imidazo[4,5-b]pyridin-6-yl)tetrahydro-2H-pyran-4-carboxamide]: the IC50 was found to be 93 nM in test [1] and 462 nM in test [2].

As to `C[C@H](C(=O)N(C)c1cnc2[nH]c(-c3n[nH]c4c3C[C@@H]3C[C@]3(C)C4)nc2c1)N1CCCCC1` [Example 117, (R)-N-Methyl-N-(2-((4aS,5aR)-5a-methyl-1,4,4a,5,5a,6-hexahydrocyclopropa[f]indazol-3-yl)-3H-imidazo[4,5-b]pyridin-6-yl)-2-(piperidin-1-yl)propanamide], the IC50 in test [1] turned out to be 275 nM; in test [2], 769 nM.

Consider `C[C@H](C(=O)N(C)c1cnc2[nH]c(-c3n[nH]c4c3C[C@@H]3C[C@]3(C)C4)nc2c1)N1CC2CC(C1)O2` (single isomer, unassigned) [Example 42], for which the IC50 was determined as 21 nM in test [1] and 143 nM in test [2].

As for `CN(C(=O)[C@H]1CCCCO1)c1cnc2nc(-c3n[nH]c4c3C[C@@H]3C[C@]3(C)C4)[nH]c2c1` [Example 68, (R)-N-Methyl-N-(2-((4aS,5aR)-5a-methyl-1,4,4a,5,5a,6-hexahydrocyclopropa[f]indazol-3-yl)-1H-imidazo[4,5-b]pyridin-6-yl)tetrahydro-2H-pyran-2-carboxamide], the IC50 in test [1] stood at 107 nM; in test [2], 177 nM.

Take `CC(C(=O)N(C)c1cnc2[nH]c(-c3n[nH]c4c3C[C@@H]3C[C@]3(C)C4)nc2c1)N1CCCCC1` (stereo partly drawn) [Example 120, N-Methyl-N-(2-((4aS,5aR)-5a-methyl-1,4,4a,5,5a,6-hexahydrocyclopropa[f]indazol-3-yl)-3H-imidazo[4,5-b]pyridin-6-yl)-2]: the figures for the IC50 in test [1] and in test [2] were 788 nM and 2340 nM, respectively.

For `CN(c1cnc2nc(-c3n[nH]c4c3C[C@@H]3C[C@]3(C)C4)[nH]c2c1)C(=O)[C@H]1C[C@@H](C)C1` [Example 89, (1s,3R)-N,3-Dimethyl-N-(2-((4aS,5aR)-5a-methyl-1,4,4a,5,5a,6-hexahydrocyclopropa[f]indazol-3-yl)-1H-imidazo[4,5-b]pyridin-6-yl)cyclobutane-1-carboxamide], the IC50 in test [1] is 27 nM; in test [2], 324 nM.

`CN(C(=O)C1CCCCC1)c1cnc2nc(-c3n[nH]c4c3C[C@@H]3C[C@]3(C)C4)[nH]c2c1` [Example 51, N-Methyl-N-(2-((4aS,5aR)-5a-methyl-1,4,4a,5,5a,6-hexahydrocyclopropa[f]indazol-3-yl)-1H-imidazo[4,5-b]pyridin-6-yl)cyclohexanecarboxamide]: the 50% inhibitory concentration (IC50) turned out to be 37 nM in test [1] and 108 nM in test [2].

Turning to `CC(=O)N(C)c1cnc2[nH]c(-c3n[nH]c4c3C[C@@H]3C[C@]3(C)C4)nc2c1` [Example 25, N-methyl-N-(2-((4aS,5aR)-5a-Methyl-1,4,4a,5,5a,6-hexahydrocyclopropa[f]indazol-3-yl)-1H-imidazo[4,5-b]pyridin-6-yl)acetamide], the IC50 in test [1] came to 130 nM; in test [2] it was 709 nM.

Turning to `CC(=O)N(CC(=O)N(C)c1cnc2nc(-c3n[nH]c4c3C[C@@H]3C[C@]3(C)C4)[nH]c2c1)C(C)C` [Example 75, 2-(N-Isopropylacetamido)-N-methyl-N-(2-((4aS,5aR)-5a-methyl-1,4,4a,5,5a,6-hexahydrocyclopropa[f]indazol-3-yl)-1H-imidazo[4,5-b]pyridin-6-yl)acetamide], the IC50 in test [1] stood at 57 nM; in test [2], 862 nM.

As for `CN(C(=O)C1C[C@@H]2[C@H](C1)C2(F)F)c1cnc2nc(-c3n[nH]c4c3C[C@@H]3C[C@]3(C)C4)[nH]c2c1` (stereo partly drawn) [Example 55, (1R,5S)-6,6-Difluoro-N-methyl-N-(2-((4aS,5aR)-5a-methyl-1,4,4a,5,5a,6-hexahydrocyclopropa[f]indazol-3-yl)-1H-imidazo[4,5-b]pyridin-6-yl)bicyclo[3.1.0]hexane-3-carboxamide], the IC50 in test [1] is 20 nM; in test [2], 93 nM.

Take `CN(C(=O)C1(F)CCCCC1)c1cnc2[nH]c(-c3n[nH]c4c3CCC(C)(C)C4)nc2c1` [Example 101, N-(2-(6,6-Dimethyl-4,5,6,7-tetrahydro-1H-indazol-3-yl)-3H-imidazo[4,5-b]pyridin-6-yl)-1-fluoro-N-methylcyclohexane-1-carboxamide]: the IC50 in test [1] amounted to 48 nM; in test [2] it was 464 nM.

As to `CCC(C)CC(=O)N(C)c1cnc2nc(-c3n[nH]c4c3C[C@@H]3C[C@]3(C)C4)[nH]c2c1` (stereo partly drawn) [Example 76, N,3-Dimethyl-N-(2-((4aS,5aR)-5a-methyl-1,4,4a,5,5a,6-hexahydrocyclopropa[f]indazol-3-yl)-1H-imidazo[4,5-b]pyridin-6-yl)pentanamide], the IC50 came to 51 nM in test [1] and 389 nM in test [2].

Regarding `CN(C(=O)CC(C)(C)C)c1cnc2nc(-c3n[nH]c4c3C[C@@H]3C[C@]3(C)C4)[nH]c2c1` [Example 73, N,3,3-Trimethyl-N-(2-((4aS,5aR)-5a-methyl-1,4,4a,5,5a,6-hexahydrocyclopropa[f]indazol-3-yl)-1H-imidazo[4,5-b]pyridin-6-yl)butanamide], the IC50 in test [1] amounted to 57 nM; in test [2] it was 498 nM.

As to `CN(C(=O)C(C)(C)CN1CCOCC1)c1cnc2nc(-c3n[nH]c4c3C[C@@H]3C[C@]3(C)C4)[nH]c2c1` [Example 53, N,2,2-Trimethyl-N-(2-((4aS,5aR)-5a-methyl-1,4,4a,5,5a,6-hexahydrocyclopropa[f]indazol-3-yl)-1H-imidazo[4,5-b]pyridin-6-yl)-3-morpholinopropanamide], the IC50 came out at 88 nM in test [1] and 304 nM in test [2].
